# “Also recorded” adds a separate entry of the source.
# Legend:
# [1] = system: human mammary carcinoma cells (BT549); experiment: Cell proliferation, crystal violet method; assay type: cell-based; details: for BT549 cell growth vs vehicle control: 80 μM, FIG. 6a, 6b; for IC50: crystal violet, spectrophotometer, read-out: IC50 anti-proliferative effect, BRC - (BT549)
# Protocol: (§1) The compound according to the invention, and in particular the synthetic quercetin derivatives described and illustrated herein were investigated in vitro by using human tumour cells and assessing their impact on the tumour proliferative capacity, with regard to the tumours described above. In particular, the following human tumour cell lines were assessed experimentally: 1) HCT116, colon adenocarcinoma cells; 2) H1299, lung adenocarcinoma cells; 3) A375, melanoma cells, and 4) A431, squamous skin cell carcinoma; 5) 786-0, renal carcinoma cells; 6) PC3, prostate carcinoma cells; 7) BT549, mammary carcinoma cells; 8) CAL27, tongue carcinoma cells (belonging to the head-and-neck carcinomas); 9) HepG2, hepatocellular carcinoma cells; 10) PANC-1, pancreas carcinoma cells; 11) T24, bladder carcinoma cells; 12) OVCAR-3, ovarian carcinoma cells. In addition, a normal human cell line, WS1 (skin fibroblasts) was also treated with the novel synthetic compounds.
# (§2) Cell proliferation was quantified by the crystal violet method with a spectrophotometer. In short, after acquiring serial images (0, 24 and 48 hrs) with the EVOS XL Cell Imaging System microscope (Thermo Fisher Scientific), the cells imaged at 48 hrs were fixed with paraformaldehyde (4%) and stained with Crystal Violet (1%). Then, the specific absorbance (λ=590 nm) at 48 hrs was measured with a spectrophotometer (Infinite®200 PRO, Tecan). Data analysis was carried out by using ad-hoc Excel files for graphical representation and statistical processing (t-test). Moreover, the results obtained with Crystal Violet were confirmed by using another cell proliferation assessment method based on the real time cellular analyzer XCELLigence RTCA DP (ACEA Biosciences, Inc.). This tool allows cell growth to be monitored from electrical impedance-derived quantitative values (the so-called Cell Index) measured by tiny electrodes located at the base of the culture wells. Proliferation is monitored for several days (5-7) by setting a Cell Index per minute measure on the instrument. The data are analysed by processing various parameters calculated by the dedicated software, such as the cell duplication time, the slope and the Max Cell Index.
# (§3) Cell proliferation was quantitated spectrophotometrically by the crystal violet method.
# [2] = system: human melanoma cells (A375); experiment: Cell proliferation, crystal violet method; assay type: cell-based; details: for growth of melanoma cells (A375) vs vehicle control: 60 μM, FIG. 1a, 1b; for IC50: crystal violet, spectrophotometer, read-out: IC50 anti-proliferative effect, Melanoma (A375)
# Protocol: as §1, §2, §3
# [3] = system: human colon carcinoma cells (HCT116); experiment: Cell proliferation, crystal violet method; assay type: cell-based; details: for HCT116 cell growth vs vehicle control: 100 μM, FIG. 3a, 3b, 13a, 13b; for IC50: crystal violet, spectrophotometer, read-out: IC50 anti-proliferative effect, CRC (HCT116)
# Protocol: as §1, §2, §3
# [4] = system: human tongue carcinoma cells (Cal27); experiment: Cell proliferation, crystal violet method; assay type: cell-based; details: for Cal27 tumour growth vs vehicle control: 80 μM, FIG. 7a, 7b; for IC50: crystal violet, spectrophotometer, read-out: IC50 anti-proliferative effect, HNC - (Cal27)
# Protocol: as §1, §2, §3
# [5] = system: human hepatocellular carcinoma cells (HepG2); experiment: Cell proliferation, crystal violet method; assay type: cell-based; details: for HepG2 tumour growth vs vehicle control: 80 μM, FIG. 8a, 8b; for IC50: crystal violet, spectrophotometer, read-out: IC50 anti-proliferative effect, HCC - HepG2
# Protocol: as §1, §2, §3
# [6] = system: H1299, lung adenocarcinoma cells; experiment: Cell proliferation, crystal violet method; assay type: cell-based, human; details: spectrophotometer, read-out: IC50 anti-proliferative effect, LC (H1299)
# Protocol: as §1, §2, §3
# [7] = system: human colon (HCT116) tumour line; experiment: Apoptosis, acridine orange/ethidium bromide method; assay type: cell-based; details: 2 hrs; Compound 2 50 μM, 5 40 μM, 4 40 μM, 3 60 μM, 1 60 μM; FIG. 18
# Description: Tumour cell apoptosis was quantified by the acridine orange/ethidium bromide (AO/EB) method and by using a fluorescence microscope and image-J. In short, after treatment with the test compounds (2 hrs), the tumour cells were placed in contact with an AO/EB solution (in sterile H2O) and photographed with a fluorescence microscope (Leica) by using the ≥20× objective (so as to distinguish the morphology of cell nuclei). In this way, the living cells are labelled with AO and emit fluorescence in the green channel, while the necrotic cells, which have undergone the rupture of the plasma membrane, are permeable to EB and emit fluorescence in the red channel. In contrast, apoptotic cells are permeable to both AO and EB, and as a consequence of the colocalization of the two fluorescences appear yellow-orange when the two individual microscope-acquired fluorescences are superimposed by using the editing program Image J. The objective quantification of the colocalization areas (apoptotic cells) and the non-colocalization areas (living or necrotic cells) was carried out on a number of cells ≥300/condition through the use of Apoptosis Correlator (ImageJ plug-in) and shown as the percentage of living (green), necrotic (red) or apoptotic (yellow-orange) tumour cells. Data analysis was carried out by using GraphPad Prism 6 for graphical representation and statistical processing (2-way ANOVA test).
# [8] = system: human renal carcinoma cells (786-0); experiment: Cell proliferation, crystal violet method; assay type: cell-based; details: for 786-0 cell growth vs vehicle control: 80 μM, FIG. 4a, 4b; for IC50: crystal violet, spectrophotometer, read-out: IC50 anti-proliferative effect, RCC - (786-O)
# Protocol: as §2, with “The compound according to the invention, and in particular the synthetic quercetin derivatives described and illustrated herein were investigated in vitro by using human tumour cells and assessing their impact on the tumour proliferative capacity, with regard to the tumours described above. In particular, the following human tumour cell lines were assessed experimentally: 1) HCT116, colon adenocarcinoma cells; 2) H1299, lung adenocarcinoma cells; 3) A375, melanoma cells, and 4) A431, squamous skin cell carcinoma; 5) 786-0, renal carcinoma cells; 6) PC3, prostate carcinoma cells; 7) BT549, mammary carcinoma cells; 8) CAL27, tongue carcinoma cells (belonging to the head-and-neck carcinomas); 9) HepG2, hepatocellular carcinoma cells; 10) PANC-1, pancreas carcinoma cells; 11) T24, bladder carcinoma cells; 12) OVCAR-3, ovarian carcinoma cells. In addition, a normal human cell line, WS1 (skin fibroblasts) was also treated with the novel synthetic compounds. Cell proliferation” for “Cell proliferation”, “Cell Index. […] Cell proliferation was quantitated spectrophotometrically by the crystal violet method.” for “Cell Index.”
# [9] = system: human pancreatic carcinoma cells (PANC-1); experiment: Cell proliferation, crystal violet method; assay type: cell-based; details: for PANC-1 cell growth vs vehicle control: 80 μM, FIG. 9a, 9b; for IC50: crystal violet, spectrophotometer, read-out: IC50 anti-proliferative effect, PCC (PANC-1)
# Protocol: as §2, with “The compound according to the invention, and in particular the synthetic quercetin derivatives described and illustrated herein were investigated in vitro by using human tumour cells and assessing their impact on the tumour proliferative capacity, with regard to the tumours described above. In particular, the following human tumour cell lines were assessed experimentally: 1) HCT116, colon adenocarcinoma cells; 2) H1299, lung adenocarcinoma cells; 3) A375, melanoma cells, and 4) A431, squamous skin cell carcinoma; 5) 786-0, renal carcinoma cells; 6) PC3, prostate carcinoma cells; 7) BT549, mammary carcinoma cells; 8) CAL27, tongue carcinoma cells (belonging to the head-and-neck carcinomas); 9) HepG2, hepatocellular carcinoma cells; 10) PANC-1, pancreas carcinoma cells; 11) T24, bladder carcinoma cells; 12) OVCAR-3, ovarian carcinoma cells. In addition, a normal human cell line, WS1 (skin fibroblasts) was also treated with the novel synthetic compounds. Cell proliferation” for “Cell proliferation”, “Cell Index. […] Cell proliferation was quantitated spectrophotometrically by the crystal violet method.” for “Cell Index.”
# [10] = system: human prostate carcinoma cells (PC3); experiment: Cell proliferation, crystal violet method; assay type: cell-based; details: for PC3 cell growth vs vehicle control: 80 μM, FIG. 5a, 5b; for IC50: crystal violet, spectrophotometer, read-out: IC50 anti-proliferative effect, PC - (PC3)
# Protocol: as §2, with “The compound according to the invention, and in particular the synthetic quercetin derivatives described and illustrated herein were investigated in vitro by using human tumour cells and assessing their impact on the tumour proliferative capacity, with regard to the tumours described above. In particular, the following human tumour cell lines were assessed experimentally: 1) HCT116, colon adenocarcinoma cells; 2) H1299, lung adenocarcinoma cells; 3) A375, melanoma cells, and 4) A431, squamous skin cell carcinoma; 5) 786-0, renal carcinoma cells; 6) PC3, prostate carcinoma cells; 7) BT549, mammary carcinoma cells; 8) CAL27, tongue carcinoma cells (belonging to the head-and-neck carcinomas); 9) HepG2, hepatocellular carcinoma cells; 10) PANC-1, pancreas carcinoma cells; 11) T24, bladder carcinoma cells; 12) OVCAR-3, ovarian carcinoma cells. In addition, a normal human cell line, WS1 (skin fibroblasts) was also treated with the novel synthetic compounds. Cell proliferation” for “Cell proliferation”, “Cell Index. […] Cell proliferation was quantitated spectrophotometrically by the crystal violet method.” for “Cell Index.”
Substance,IC50 [1],IC50 [2],IC50 [3],IC50 [4],IC50 [5],IC50 [6],IC50 [8],IC50 [9],IC50 [10],BT549 cell growth vs vehicle control [1],growth of melanoma cells (A375) vs vehicle control [2],HCT116 cell growth vs vehicle control [3],Cal27 tumour growth vs vehicle control [4],HepG2 tumour growth vs vehicle control [5],induction of apoptosis in HCT116 [7],786-0 cell growth vs vehicle control [8],PANC-1 cell growth vs vehicle control [9],PC3 cell growth vs vehicle control [10]
"2-(3,4-Dihydroxyphenyl)-3-ethoxy-5,7-dihydroxy-4H-chromen-4-one [Compound 1]",191 µM,67.1 µM,166 µM,15.6 µM,144 µM,100 µM,149 µM,> 1000 µM,79.3 µM,significantly inhibit,,,significantly inhibit,significantly inhibit,induced apoptosis,significantly inhibit,,significantly inhibit
"2-(3,4-Dihydroxyphenyl)-3-hexyloxy-5,7-dihydroxy-4H-chromen-4-one [Compound 2]",156 µM,19.3 µM,42.8 µM,63.2 µM,265 µM,50.7 µM,72.5 µM,95.4 µM,309 µM,significantly inhibit,significantly inhibit,significantly inhibit,significantly inhibit,significantly inhibit,induced apoptosis,significantly inhibit,significantly inhibit,
"2-(3,4-Dihydroxyphenyl)-3-hexadecyloxy-5,7-dihydroxy-4H-chromen-4-one [Compound 3]",119 µM,48.1 µM,59.8 µM,36.7 µM,50.2 µM,34.9 µM,65.4 µM,156 µM,46.2 µM,significantly inhibit,,significantly inhibit,significantly inhibit,significantly inhibit; also recorded: superior to that of quercetin,induced apoptosis,significantly inhibit,significantly inhibit,significantly inhibit

# Now those with a lower IC50 [1], led by results:
IC50 [1],IC50 [2],IC50 [3],IC50 [4],IC50 [5],IC50 [6],IC50 [8],IC50 [9],IC50 [10],Substance,BT549 cell growth vs vehicle control [1],growth of melanoma cells (A375) vs vehicle control [2],HCT116 cell growth vs vehicle control [3],Cal27 tumour growth vs vehicle control [4],HepG2 tumour growth vs vehicle control [5],induction of apoptosis in HCT116 [7],786-0 cell growth vs vehicle control [8],PANC-1 cell growth vs vehicle control [9],PC3 cell growth vs vehicle control [10]
48.6 µM,20.1 µM,22.9 µM,22.9 µM,54.4 µM,15.9 µM,41.2 µM,69.6 µM,34.9 µM,"2-(3,4-dihydroxyphenyl)-5,7-dihydroxy-4-oxo-4H-chromen-3-yl acetate [Compound 4]",significantly inhibit,significantly inhibit,significantly inhibit,significantly inhibit,significantly inhibit; also recorded: superior to that of quercetin,induced apoptosis,significantly inhibit,significantly inhibit,significantly inhibit
46.5 µM,16.4 µM,28.8 µM,19.7 µM,106 µM,50.5 µM,32.6 µM,69.4 µM,56.9 µM,"2-(3,4-dihydroxyphenyl)-5,7-dihydroxy-4-oxo-4H-chromen-3-yl palmitate [Compound 5]",significantly inhibit,significantly inhibit,significantly inhibit,significantly inhibit; also recorded: superior to that of quercetin,significantly inhibit; also recorded: superior to that of quercetin,induced apoptosis,significantly inhibit,significantly inhibit,significantly inhibit

# — patent US12059400B2, “Medical compound” (VERA SALUS RICERCA S.R.L., priority 2017, dated 2024)
